Results reported in US12122778B2, “Activating pyruvate kinase R” (Novo Nordisk Health Care AG, priority 2018, dated 2024).

Key:
PKR(G332S) = PKR(G332S) (Homo sapiens, UniProt P30613, G332S); assay: Luminescence Biochemical Assay (Kinase Glo Plus), PKR G332S mutant; settings: with FBP; for activation at 1.54 µM: 1.54 μM compound, read-out: AC50 LUM KGP FBP % Fold@1.54 μM mean; for AC50: read-out: AC50 LUM KGP FBP AC50 μM gmean (column A); for Emax: read-out: AC50 LUM KGP FBP MAX % FOLD mean
PKR(R510Q) = PKR(R510Q) (Homo sapiens, UniProt P30613, R510Q); assay: Luminescence Biochemical Assay (Kinase Glo Plus), PKR R510Q mutant; settings: without FBP; for activation at 1.54 µM: 1.54 μM compound, read-out: AC50 LUM KGP woFBP % Fold@1.54 μM mean; for AC50: read-out: AC50 LUM KGP woFBP AC50 μM gmean; for Emax: read-out: AC50 LUM KGP woFBP MAX % FOLD mean
PKR(wt) = PKR(wt) (Homo sapiens, UniProt P30613); assay: Luminescence Biochemical Assay (Kinase Glo Plus), wild type PKR; settings: without FBP; for activation at 1.54 µM: 1.54 μM compound, read-out: AC50 LUM KGP woFBP % Fold@1.54 μM mean; for AC50: read-out: AC50 LUM KGP woFBP AC50 μM gmean; for Emax: read-out: AC50 LUM KGP woFBP MAX % FOLD mean
PKR(wt), sequence (P30613 whole entry): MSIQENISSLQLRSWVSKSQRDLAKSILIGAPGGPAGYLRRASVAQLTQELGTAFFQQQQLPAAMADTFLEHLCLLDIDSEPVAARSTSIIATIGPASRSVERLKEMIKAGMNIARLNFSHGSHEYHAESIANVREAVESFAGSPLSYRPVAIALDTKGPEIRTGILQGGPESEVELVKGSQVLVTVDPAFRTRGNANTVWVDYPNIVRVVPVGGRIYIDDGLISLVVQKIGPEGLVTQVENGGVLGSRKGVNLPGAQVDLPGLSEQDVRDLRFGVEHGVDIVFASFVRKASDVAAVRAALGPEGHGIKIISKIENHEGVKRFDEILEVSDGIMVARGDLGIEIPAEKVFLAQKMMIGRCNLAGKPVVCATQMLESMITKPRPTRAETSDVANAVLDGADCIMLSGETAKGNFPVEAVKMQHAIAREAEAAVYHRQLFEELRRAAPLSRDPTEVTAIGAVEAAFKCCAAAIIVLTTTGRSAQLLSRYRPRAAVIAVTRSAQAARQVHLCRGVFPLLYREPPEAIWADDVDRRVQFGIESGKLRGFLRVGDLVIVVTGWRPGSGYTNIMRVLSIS

PKR(G332S), sequence (P30613 whole entry G332S): as the sequence (P30613 whole entry) above, with G332S counted along it
PKR(R510Q), sequence (P30613 whole entry R510Q): as the sequence (P30613 whole entry) above, with R510Q counted along it

Structure (SMILES)	activation at 1.54 µM (PKR(G332S)) [%]	AC50 (PKR(G332S)) [µM]	Emax (PKR(G332S)) [%]	activation at 1.54 µM (PKR(R510Q)) [%]	AC50 (PKR(R510Q)) [µM]	Emax (PKR(R510Q)) [%]	activation at 1.54 µM (PKR(wt)) [%]	AC50 (PKR(wt)) [µM]	Emax (PKR(wt)) [%]
Cc1nc(CC(=O)N2CC3=C(C2)CN(S(=O)(=O)c2ccc(OC(F)F)cc2)C3)cs1 [Example 18-20, 1-{5-[4-(Difluoromethoxy)benzene-sulfonyl]-1H,2H,3H,4H,5H,6H-pyrrolo[3,4-c]pyrrol-2-yl}-2-(2-methyl-1,3-thiazol-4-yl)ethan-1-one]	75 to 250	1 to 40	75 to 250	75 to 250	1 to 40	250 to 500	250 to 50000	0.1 to 1	250 to 500
O=C(Cc1cccnc1)N1CC2=C(C1)CN(S(=O)(=O)c1ccccn1)C2 [Example 16-1, 2-(Pyridin-3-yl)-1-[5-(pyridine-2-sulfonyl)-1H,2H,3H,4H,5H,6H-pyrrolo[3,4-c]pyrrol-2-yl]ethan-1-one]	75 to 250	1 to 40	75 to 250	75 to 250	1 to 40	75 to 250	75 to 250	1 to 40	250 to 500
Cc1nc(CC(=O)N2CC3=C(C2)CN(S(=O)(=O)c2ccccn2)C3)cs1 [Example 18-68, 2-(2-Methyl-1,3-thiazol-4-yl)-1-[5-(pyridine-2-sulfonyl)-1H,2H,3H,4H,5H,6H-pyrrolo[3,4-c]pyrrol-2-yl]ethan-1-one]	75 to 250	0.1 to 1	75 to 250	75 to 250	1 to 40	75 to 250	75 to 250	1 to 40	250 to 500
O=C(Cc1cnccn1)N1CC2=C(C1)CN(S(=O)(=O)c1ccc(OC(F)F)cc1)C2 [Example 18-29, 1-{5-[4-(Difluoromethoxy)benzenesulfonyl]-1H,2H,3H,4H,5H,6H-pyrrolo[3,4-c]pyrrol-2-yl}-2-(pyrazin-2-yl)ethan-1-one]	75 to 250	≤ 0.1	75 to 250	75 to 250	1 to 40	250 to 500	75 to 250	1 to 40	250 to 500
CN1CCOc2ccc([C@H](O)C(=O)N3CC4=C(C3)CN(S(=O)(=O)c3ccc(OC(F)F)cc3)C4)cc21 (single isomer, unassigned) [Example 10-2]	75 to 250	≤ 0.1	75 to 250	250 to 50000	0.1 to 1	250 to 500	250 to 50000	≤ 0.1	250 to 500
Cc1cccc(S(=O)(=O)N2CC3=C(CN(C(=O)NCc4ccccc4F)C3)C2)n1 [Example 15-1, N-[(2-fluorophenyl)methyl]-5-(6-methylpyridine-2-sulfonyl)-1H,2H,3H,4H,5H,6H-pyrrolo[3,4-c]pyrrole-2-carboxamide]	75 to 250	0.1 to 1	75 to 250	250 to 50000	≤ 0.1	250 to 500	250 to 50000	≤ 0.1	250 to 500
O=C(C(F)c1ccccc1)N1CC2=C(C1)CN(S(=O)(=O)c1ccc(OC(F)F)cc1)C2 (stereo not drawn) [Example 18-24, 1-{5-[4-(Difluoromethoxy)benzenesulfonyl]-1H,2H,3H,4H,5H,6H-pyrrolo[3,4-c]pyrrol-2-yl}-2-fluoro-2-phenylethan-1-one]	75 to 250	≤ 0.1	75 to 250	250 to 50000	≤ 0.1	250 to 500	250 to 50000	0.1 to 1	250 to 500
Cc1ccc(CC(=O)N2CC3=C(C2)CN(S(=O)(=O)c2ccc(OC(F)F)cc2)C3)cn1 [Example 18-30, 1-{5-[4-(Difluoromethoxy)benzenesulfonyl]-1H,2H,3H,4H,5H,6H-pyrrolo[3,4-c]pyrrol-2-yl}-2-(6-methylpyridin-3-yl)ethan-1-one]	75 to 250	≤ 0.1	75 to 250	250 to 50000	0.1 to 1	250 to 500	250 to 50000	0.1 to 1	250 to 500
O=C([C@H](O)c1ccccc1)N1CC2=C(C1)CN(S(=O)(=O)c1cccnc1C(F)(F)F)C2 [Example 4-2, (R)-2-hydroxy-2-phenyl-1-(5-(2-(trifluoromethyl)pyridin-3-ylsulfonyl)-4,5-dihydropyrrolo[3,4-c]pyrrol-2(1H,3H,4H)-yl)ethanone]	75 to 250	1 to 40	75 to 250	75 to 250	1 to 40	75 to 250	75 to 250	1 to 40	75 to 250
CN1CCOc2ccc([C@@H](O)C(=O)N3CC4=C(C3)CN(S(=O)(=O)c3ccc(OC(F)F)cc3)C4)cc21 (single isomer, unassigned) [Example 10-1]	75 to 250	0.1 to 1	75 to 250	75 to 250	1 to 40	250 to 500	75 to 250	1 to 40	250 to 500
O=C(Cc1ccc(F)cc1F)N1CC2=C(C1)CN(S(=O)(=O)c1ccccn1)C2 [Example 18-67, 2-(2,4-Difluorophenyl)-1-[5-(pyridine-2-sulfonyl)-1H,2H,3H,4H,5H,6H-pyrrolo[3,4-c]pyrrol-2-yl]ethan-1-one]	75 to 250	0.1 to 1	75 to 250	75 to 250	1 to 40	250 to 500	75 to 250	1 to 40	250 to 500
O=C([C@H](O)c1ccccc1)N1CC2=C(C1)CN(S(=O)(=O)c1cccc(OC(F)F)c1)C2 [Example 18-15, (2R)-1-{5-[3-(difluoromethoxy)benzene-sulfonyl]-1H,2H,3H,4H,5H,6H-pyrrolo[3,4-c]pyrrol-2-yl}-2-hydroxy-2-phenylethan-1-one]	75 to 250	≤ 0.1	75 to 250	250 to 50000	≤ 0.1	250 to 500	75 to 250	≤ 0.1	75 to 250
O=C([C@@H]1CCCO1)N1CC2=C(C1)CN(S(=O)(=O)c1ccccn1)C2 [Example 18-69, 2-({5-[(2S)-oxolane-2-carbonyl]-1H,2H,3H,4H,5H,6H-pyrrolo[3,4-c]pyrrol-2-yl}sulfonyl)pyridine]	75 to 250	1 to 40	75 to 250	75 to 250	1 to 40	75 to 250	75 to 250	1 to 40	75 to 250
O=C([C@@H](O)c1ccccn1)N1CC2=C(C1)CN(S(=O)(=O)c1ccc(OC(F)F)cc1)C2 (single isomer, unassigned) [Example 8-3]	75 to 250	0.1 to 1	75 to 250	250 to 50000	0.1 to 1	250 to 500	250 to 50000	0.1 to 1	250 to 500
O=C(NCc1ccc(F)cc1)N1CC2=C(C1)CN(S(=O)(=O)c1ccc(C(F)(F)F)nc1)C2 [Example 21-39, N-[(4-fluorophenyl)methyl]-5-{[6-(trifluoromethyl)pyridin-3-yl]sulfonyl}-1H,2H,3H,4H,5H,6H-pyrrolo[3,4-c]pyrrole-2-carboxamide]	75 to 250	1 to 40	75 to 250	75 to 250	1 to 40	75 to 250	75 to 250	1 to 40	75 to 250
COc1cccc(CNC(=O)N2CC3=C(C2)CN(S(=O)(=O)c2ccc4ncsc4c2)C3)c1 [Example 21-17, 5-(1,3-Benzothiazole-6-sulfonyl)-N-[(3-methoxyphenyl)methyl]-1H,2H,3H,4H,5H,6H-pyrrolo[3,4-c]pyrrole-2-carboxamide]	75 to 250	≤ 0.1	75 to 250	75 to 250	1 to 40	75 to 250	75 to 250	≤ 0.1	75 to 250
O=C([C@H](O)c1ccccc1)N1CC2=C(C1)CN(S(=O)(=O)c1ccc(OC(F)F)cc1)C2 [Example 18-13, (2R)-1-{5-[4-(difluoromethoxy)benzenesulfonyl]-1H,2H,3H,4H,5H,6H-pyrrolo[3,4-c]pyrrol-2-yl}-2-hydroxy-2-phenylethan-1-one]	75 to 250	≤ 0.1	75 to 250	250 to 50000	≤ 0.1	250 to 500	250 to 50000	≤ 0.1	250 to 500
CC(=O)Nc1ccc(S(=O)(=O)N2CC3=C(CN(C(=O)[C@H](O)c4ccccc4)C3)C2)cc1 [Example 18-56, N-[4-({5-[(2R)-2-hydroxy-2-phenylacetyl]-1H,2H,3H,4H,5H,6H-pyrrolo[3,4-c]pyrrol-2-yl}sulfonyl)phenyl]acetamide]	75 to 250	1 to 40	75 to 250	75 to 250	1 to 40	250 to 500	75 to 250	1 to 40	75 to 250
